Data reported in patent US20080021030A1, “Substituted Pyrazoles As Ppar Agonists” (priority 2003, published 2008).
Structures can show the parent of a compound that is named as a salt.

How the values were obtained:
hPPAR alpha = target: T1, hPPAR alpha (Homo sapiens, UniProt Q07869); assay: Transient transfection (transactivation) assay in CV-1 cells, GAL4-PPAR LBD chimera, SPAP reporter; type: cell-based; details: read-out: EC50 μM HPPARα
T1 construct: expressed in transfected cells; host or cells: CV-1 cells
T1 sequence (Q07869 239-466 limits assumed): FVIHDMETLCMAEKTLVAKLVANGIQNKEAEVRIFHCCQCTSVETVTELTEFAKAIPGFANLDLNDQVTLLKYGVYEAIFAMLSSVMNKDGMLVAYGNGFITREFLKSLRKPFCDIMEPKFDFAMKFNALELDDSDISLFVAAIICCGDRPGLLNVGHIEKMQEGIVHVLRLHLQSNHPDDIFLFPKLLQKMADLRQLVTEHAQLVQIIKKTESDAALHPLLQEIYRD
Excerpt: (§1) Compounds were screened for functional potency in transient transfection assays in CV-1 cells for their ability to activate the PPAR subtypes (transactivation assay). A previously established chimeric receptor system was utilized to allow comparison of the relative transcriptional activity of the receptor subtypes on the same target gene and to prevent endogenous receptor activation from complicating the interpretation of results. See, for example, Lehmann, J. M.; Moore, L. B.; Smith-Oliver, T. A.; Wilkison, W. O.; Willson, T. M.; Kliewer, S. A., An antidiabetic thiazolidinedione is a high affinity ligand for peroxisome proliferator-activated receptor gamma (PPARgamma), J. Biol. Chem., 270, 12953-6 (1995). The ligand binding domains for murine and human PPAR alpha, PPAR gamma, and PPAR delta were each fused to the yeast transcription factor GAL4 DNA binding domain. CV-1 cells were transiently transfected with expression vectors for the respective PPAR chimera along with a reporter construct containing five copies of the GAL4 DNA binding site driving expression of secreted placental alkaline phosphatase (SPAP) and beta-galactosidase. After 16 h, the medium was exchanged to DME medium supplemented with 10% delipidated fetal calf serum and the test compound at the appropriate concentration. After an additional 24 h, cell extracts were prepared and assayed for alkaline phosphatase and β-galactosidase activity. Alkaline phosphatase activity was corrected for transfection efficiency using the beta-galactosidase activity as an internal standard (see, for example, Kliewer, S. A., et. al. Cell 83, 813-819 (1995)). Rosiglitazone (BRL 49653) was used as a positive control in the hPPAR gamma assay. The positive control in the hPPAR alpha assays was 2-4-[2-(3-[4-fluorophenyl]-1-heptylureido)ethyl]-phenoxy-(2-methyl propionic acid (WO 97/36579). The positive control for PPAR delta assays was 2-{2-methyl-4-[({4-methyl-2-{trifluoromethyl)phenyl]-1,3-thiazol-5-yl}methyl)sulfanyl]phenoxy}acetic acid (WO 01/00603). The positive control was (5-{4-[2-(Methyl-pyridin-2-yl-amino)-ethoxy]-benzyl}-thiazolidine-2,4-dione (J. Med. Chem. 1994, 37(23), 3977), for PPAR gamma.
(§2) Activities in three hPPAR subtypes are reported in the table and are expressed in micromolar.

hPPAR delta = target: T2, hPPAR delta (Homo sapiens, UniProt Q03181); assay: as above; type: cell-based; details: read-out: EC50 μM HPPARδ
T2 construct: expressed in transfected cells; host or cells: CV-1 cells
T2 sequence (Q03181 211-439 limits assumed): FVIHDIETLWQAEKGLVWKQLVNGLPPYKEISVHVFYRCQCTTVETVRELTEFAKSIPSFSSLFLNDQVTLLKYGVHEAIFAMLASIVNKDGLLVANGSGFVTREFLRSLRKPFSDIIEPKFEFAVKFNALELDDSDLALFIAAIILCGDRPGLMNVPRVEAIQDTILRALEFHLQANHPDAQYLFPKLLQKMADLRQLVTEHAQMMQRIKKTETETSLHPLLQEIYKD
Excerpt: as §1, §2

hPPAR gamma = target: T3, hPPAR gamma (Homo sapiens, UniProt P37231); assay: Transient transfection (transactivation) assay in CV-1 cells, GAL4-PPAR LBD chimera, SPAP reporter; type: cell-based; details: read-out: EC50 μM HPPARγ
T3 construct: expressed in transfected cells; host or cells: CV-1 cells
T3 sequence (P37231 238-503 limits assumed): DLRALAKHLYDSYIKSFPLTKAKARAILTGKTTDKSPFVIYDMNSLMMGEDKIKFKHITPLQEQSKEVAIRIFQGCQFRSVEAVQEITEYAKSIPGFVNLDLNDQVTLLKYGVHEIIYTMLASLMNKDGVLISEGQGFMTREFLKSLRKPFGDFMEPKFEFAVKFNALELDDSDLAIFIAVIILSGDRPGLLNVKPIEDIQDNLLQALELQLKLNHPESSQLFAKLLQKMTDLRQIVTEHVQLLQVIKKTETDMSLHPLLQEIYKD
Excerpt: Compounds were screened for functional potency in transient transfection assays in CV-1 cells for their ability to activate the PPAR subtypes (transactivation assay). A previously established chimeric receptor system was utilized to allow comparison of the relative transcriptional activity of the receptor subtypes on the same target gene and to prevent endogenous receptor activation from complicating the interpretation of results. […] The ligand binding domains for murine and human PPAR alpha, PPAR gamma, and PPAR delta were each fused to the yeast transcription factor GAL4 DNA binding domain. CV-1 cells were transiently transfected with expression vectors for the respective PPAR chimera along with a reporter construct containing five copies of the GAL4 DNA binding site driving expression of secreted placental alkaline phosphatase (SPAP) and beta-galactosidase. After 16 h, the medium was exchanged to DME medium supplemented with 10% delipidated fetal calf serum and the test compound at the appropriate concentration. After an additional 24 h, cell extracts were prepared and assayed for alkaline phosphatase and β-galactosidase activity.

Structure (SMILES) | EC50 (hPPAR alpha) [µM] | EC50 (hPPAR delta) [µM] | melting point | EC50 (hPPAR gamma) [µM]
Cc1cc(CNC(=O)c2cc(-c3ccc(-c4ccoc4)cc3)n(C)n2)ccc1OC(C)(C)C(=O)O [Example 33, 2-[(4-{[({5-[4-(3-furanyl)phenyl]-1-methyl-1H-pyrazol-3-yl}carbonyl)amino]methyl}-2-methylphenyl)oxy]-2-methylpropanoic acid] | 0.004 | 1.64 | 102 °C | 
Cc1cc(CNC(=O)c2cc(-c3ccc(-c4ccncc4)cc3)n(C)n2)ccc1OC(C)(C)C(=O)O [Example 34, 2-methyl-2-[(2-methyl-4-{[({1-methyl-5-[4-(4-pyridinyl)phenyl]-1H-pyrazol-3-yl}carbonyl)amino]methyl}phenyl)oxy]propanoic acid] | 0.734 | > 25 | 264 °C (dec.) | 
C=CCn1nc(-c2ccc(C(C)(C)C)cc2)cc1C(=O)NCc1ccc(OC(C)(C)C(=O)O)c(C)c1 [Example 47, 2-({4-[({[3-[4-(1,1-dimethylethyl)phenyl]-1-(2-propen-1-yl)-1H-pyrazol-5-yl]carbonyl}amino)methyl]-2-methylphenyl}oxy)-2-methylpropanoic acid] | 0.044 | 1.15 |  | 0.059
Cc1cc(CNC(=O)c2cc(-c3ccc(C(C)(C)C)cc3)n(Cc3ccccc3)n2)ccc1OC(C)(C)C(=O)O [Example 50, 2-({4-[({[5-[4-(1,1-dimethylethyl)phenyl]-1-(phenylmethyl)-1H-pyrazol-3-yl]carbonyl}amino)methyl]-2-methylphenyl}oxy)-2-methylpropanoic acid] | 0.204 | > 25 |  | 1.7
Cc1ccc(CNC(=O)c2cc(-c3ccc(C(C)(C)C)cc3)nn2CCc2ccccc2)cc1OC(C)(C)C(=O)O [Example 51, 2-({5-[({[3-[4-(1,1-dimethylethyl)phenyl]-1-(2-phenylethyl)-1H-pyrazol-5-yl]carbonyl}amino)methyl]-2-methylphenyl}oxy)-2-methylpropanoic acid] | 0.3 | > 25 |  | 0.14
Cc1cc(CNC(=O)c2cc(-c3ccc(C(C)(C)C)cc3)n(CCN3CCOCC3)n2)ccc1OC(C)(C)C(=O)O [Example 54, 2-[(4-{[({5-[4-(1,1-dimethylethyl)phenyl]-1-[2-(4-morpholinyl)ethyl]-1H-pyrazol-3-yl}carbonyl)amino]methyl}-2-methylphenyl)oxy]-2-methyl propanoic acid hydrochloride] | 0.571 | > 25 |  | > 25
Cc1cc(CNC(=O)c2cc(-c3ccc(C(C)(C)C)cc3)nn2CCN2CCOCC2)ccc1OC(C)(C)C(=O)O [Example 55, 2-[(4-{[({3-[4-(1,1-dimethylethyl)phenyl]-1-[2-(4-morpholinyl)ethyl]-1H-pyrazol-5-yl}carbonyl)amino]methyl}-2-methylphenyl)oxy]-2-methyl propanoic acid] | 0.444 | > 25 |  | 0.748
C=CCn1nc(-c2ccc(C(C)(C)C)cc2)cc1C(=O)NCc1ccc(OC(C)(C)C(=O)O)cc1 [Example 60, 2-({4-[({[3-[4-(1,1-dimethylethyl)phenyl]-1-(2-propen-1-yl)-1H-pyrazol-5-yl]carbonyl}amino)methyl]phenyl}oxy)-2-methylpropanoic acid] | 0.192 | 5.93 |  | 1.38
Cc1cc(CNC(=O)c2cc(-c3ccc(C(C)(C)C)cc3)nn2Cc2ccccc2)ccc1OC(C)(C)C(=O)O [Example 61, 2-({4-[({[3-[4-(1,1-dimethylethyl)phenyl]-1-(phenylmethyl)-1H-pyrazol-5-yl]carbonyl}amino)methyl]-2-methylphenyl}oxy)-2-methylpropanoic acid] | 0.115 | 2.42 |  | 0.147
C=CCn1nc(C(=O)NCc2ccc(OC(C)(C)C(=O)O)c(C)c2)cc1-c1ccc(C(C)(C)C)cc1 [Example 62, 2-({4-[({[5-[4-(1,1-dimethylethyl)phenyl]-1-(2-propen-1-yl)-1H-pyrazol-3-yl]carbonyl}amino)methyl]-2-methylphenyl}oxy)-2-methylpropanoic acid] | 0.032 | > 25 |  | 0.069
